≈ marks a conversion by molar mass, not a printed value. Where two headings read alike, the source gives them in different places.
What was measured:
Type in all cases: cell-based
[1] = system: methicillin-resistant S. aureus (MRSA); assay: Bouillon dilution assay (MIC90); conditions: Staphylococcus aureus, tryptic soy broth, 37° C., 16 h
Experimental: Before incubation, 3 was added in decreasing concentrations ([…] to 12.5 μg/ml). After incubation, the OD600 was measured. The experiment was run in triplicate. Ciprofloxacin was used as a positive control.

[2] = system: Staphylococcus aureus SG511; assay: Agar diffusion assay; conditions: 50 μL of 0.5 mg in 1 mL methanol per 7 mm hole, n.a. = no activity observed, read-out: diameter of inhibition zone
Experimental: (§1) Antimicrobial activities of the gulmirecins were determined in a primary screen against Bacillus subtilis ATCC 6633, Staphylococcus aureus SG511, Staphylococcus auricularis DSM 20609, Mycobacterium vaccae IMET 10670, Pseudomonas aeruginosa K799/61, Escherichia coli SG458, Sporobolomyces salmonicolor SBUG 549, Candida albicans ATCC14053 and Penicillium notatum JP 36. To this end, holes with 7 mm diameter were aseptically punched in the respective agar medium. Subsequently, the agar plates were inoculated with the test organisms. 0.5 mg of every test compound was dissolved in 1 mL of methanol, and 50 μL of this solution was transferred to a single hole. Ciprofloxacin and amphotericin B served as positive controls. After evaporation of the solvent, the agar plates were incubated depending on the growth conditions of the test organisms. […] The test results are shown in Table 6 below, wherein the given values represent the diameters of the respective inhibition zone in the agar diffusion assay.

[3] = system: Mycobacterium vaccae IMET 10670; assay: Agar diffusion assay; conditions: Mycolicibacterium vaccae, IMET10670; 50 μL of 0.5 mg in 1 mL methanol per 7 mm hole; n.a. = no activity observed; read-out: diameter of inhibition zone
Experimental: as §1

[4] = system: Pseudomonas aeruginosa K799/61; assay: Agar diffusion assay; conditions: 50 μL of 0.5 mg in 1 mL methanol per 7 mm hole, n.a. = no activity observed, read-out: diameter of inhibition zone
Experimental: as §1

Escherichia coli SG458 = assay: Agar diffusion assay; conditions: 50 μL of 0.5 mg in 1 mL methanol per 7 mm hole, n.a. = no activity observed, read-out: diameter of inhibition zone
Experimental: as §1

[5] = system: Staphylococcus auricularis DSM 20609; assay: Agar diffusion assay; conditions: DSM20609, 50 μL of 0.5 mg in 1 mL methanol per 7 mm hole, n.a. = no activity observed, read-out: diameter of inhibition zone
Experimental: as §1

[6] = system: Bacillus subtilis ATCC 6633; assay: Agar diffusion assay; conditions: ATCC6633, 50 μL of 0.5 mg in 1 mL methanol per 7 mm hole, n.a. = no activity observed, read-out: diameter of inhibition zone
Experimental: as §1

[7] = system: Sporobolomyces salmonicolor SBUG 549; assay: Agar diffusion assay; conditions: 50 μL of 0.5 mg in 1 mL methanol per 7 mm hole; n.a. = no activity observed
Experimental: as §1

[8] = system: Penicillium notatum JP 36; assay: Agar diffusion assay; conditions: 50 μL of 0.5 mg in 1 mL methanol per 7 mm hole; n.a. = no activity observed
Experimental: as §1

[9] = system: Candida albicans ATCC14053; assay: Agar diffusion assay; conditions: 50 μL of 0.5 mg in 1 mL methanol per 7 mm hole; n.a. = no activity observed
Experimental: as §1

[10] = system: Chinese hamster ovary CHO-K1 cells (ACC-110); assay: Cytotoxicity (MTT) assay, antiproliferative activity; conditions: Cricetulus griseus, 120 h, CHO-K1, 5 d incubation
Experimental: (§2) Half maximal inhibitory concentrations (IC50) in μg/ml of disciformycin A (1) and disciformycin B (2) for inhibiting the proliferative activity of human HCT-116 colon carcinoma cells, mouse fibroblast cells L929, and Chinese hamster ovary CHO-K1 cells were determined. Cells were seeded at 6×10^3 cells per well of 96-well plates (Corning CellBind®) in complete medium (180 μl) and directly treated with disciformycin dissolved in DMSO in serial dilution. The compound was tested in duplicate, as well as the internal solvent control. After 5 d incubation, 5 mg/ml MTT in PBS (20 μL) was added per well and it was further incubated for 2 h at 37° C. The medium was then discarded and cells were washed with PBS (100 μl) before adding 2-propanol/10N HCl (250:1, v/v; 100 μl) in order to dissolve formazan granules. The absorbance at 570 nm was measured using a microplate reader (EL808, Bio-Tek Instruments Inc.). The amount of formazan, i.e. relative absorption, is thereby proportional to the number of actively proliferating cells.

[11] = system: HCT-116 colon carcinoma cells (ACC-581); assay: as above; conditions: Homo sapiens, 120 h, HCT-116, 5 d incubation
Experimental: as §2

[12] = system: Mouse fibroblast cells L929 (ACC-2); assay: as above; conditions: 120 h, L929, 5 d incubation
Experimental: as §2

[13] = system: Staphylococcus aureus Mu50 (MRSA/VRSA) ATCC 700699; assay: MIC by microbroth dilution; conditions: 16 h, 30° C., n.i. = no inhibition up to 67 μg/ml
Experimental: (§3) Bacterial strains. Bacterial wildtype strains used in susceptibility assays were either part of HZI's strain collection or purchased from the German Collection of Microorgansims and Cell Cultures (Deutsche Sammlung von Mikroorganismen und Zellkulturen, DSMZ).
(§4) Minimum inhibitory concentration (MIC) was determined by microbroth dilution. In brief, overnight cultures of bacteria (EBS medium) were diluted to OD600 0.01. Disciformycin A (1) or B (2) dissolved in DMSO was added directly to the cultures in 96-well plates (Sarstedt, flat bottom) in duplicate and the compound was tested in serial dilution. […] After 16 h incubation at 900 rpm and 30° C. on a microplate shaker (Titramax, Heidolph) absorbance at 600 nm was measured using a microplate reader (POLARstar Omega, BMG Labtech). MIC values were determined by sigmoidal curve fitting.

[14] = system: Micrococcus luteus DSM 20030; assay: MIC by microbroth dilution; conditions: 16 h, 30° C., n.i. = no inhibition up to 67 μg/ml
Experimental: as §3, §4

[15] = system: Staphylococcus aureus DSM 346; assay: MIC by microbroth dilution; conditions: Staphylococcus aureus, DSM346, 16 h, 30° C., n.i. = no inhibition up to 67 μg/ml, read-out: MIC
Experimental: as §3, §4

[16] = system: Paenibacillus polymyxa DSM 36; assay: MIC by microbroth dilution; conditions: Paenibacillus polymyxa, DSM36, 16 h, 30° C., n.i. = no inhibition up to 67 μg/ml, read-out: MIC
Experimental: as §3, §4

[17] = system: Staphylococcus aureus (MRSA) DSM-11822; assay: MIC by microbroth dilution; conditions: microbroth dilution, 16 h, 30° C., n.i. = no inhibition up to 67 μg/ml
Experimental: as §3, §4

[18] = system: Nocardioides simplex DSM 20130; assay: MIC by microbroth dilution; conditions: Pimelobacter simplex, DSM20130, 16 h, 30° C., n.i. = no inhibition up to 67 μg/ml, read-out: MIC
Experimental: as §3, §4

[19] = system: Mycobacterium sp. DSM 43270; assay: MIC by microbroth dilution; conditions: 16 h, 30° C., n.i. = no inhibition up to 67 μg/ml
Experimental: as §3, §4

[20] = system: Staphylococcus camosus DSM 20501; assay: MIC by microbroth dilution; conditions: 30° C., n.i. = no inhibition up to 67 μg/ml
Experimental: as §3, §4

[21] = system: Pseudomonas aeruginosa DSM 50071; assay: MIC by microbroth dilution; conditions: 16 h, 30° C., n.i. = no inhibition up to 67 μg/ml
Experimental: as §3, §4

Bacillus subtilis DSM 10 = assay: MIC by microbroth dilution; conditions: Bacillus subtilis, DSM10, 16 h, 30° C., n.i. = no inhibition up to 67 μg/ml, read-out: MIC
Experimental: as §3, §4

[22] = system: Chromobacterium violaceum DSM 30191; assay: MIC by microbroth dilution; conditions: 16 h, 30° C., n.i. = no inhibition up to 67 μg/ml
Experimental: as §3, §4

[23] = system: Staphylococcus aureus Newman; assay: MIC by microbroth dilution; conditions: 16 h, 30° C., n.i. = no inhibition up to 67 μg/ml
Experimental: as §3, §4

[24] = system: Staphylococcus aureus N315 (MRSA); assay: MIC by microbroth dilution; conditions: 16 h, 30° C., n.i. = no inhibition up to 67 μg/ml
Experimental: as §3, §4

[25] = system: Mycobacterium diemhoferi DSM 43524; assay: MIC by microbroth dilution; conditions: Mycobacterium, DSM43524, 16 h, 30° C., n.i. = no inhibition up to 67 μg/ml, read-out: MIC
Experimental: as §3, §4

[26] = system: Escherichia coli DSM 1116; assay: MIC by microbroth dilution; conditions: 16 h, 30° C., n.i. = no inhibition up to 67 μg/ml
Experimental: as §3, §4

[27] = system: S. aureus N315 mutant Mt50DscA.10; assay: Susceptibility (MIC) of Disciformycin A-resistant mutant; conditions: Staphylococcus aureus
[28] = system: S. aureus N315 Mt50DscA.9; assay: as above; conditions: Staphylococcus aureus
[29] = system: S. aureus N315 mutant Mt50DscA.1; assay: as above; conditions: Staphylococcus aureus
[30] = system: S. aureus N315 mutant Mt50DscA.3; assay: as above; conditions: Staphylococcus aureus
[31] = system: S. aureus N315 mutant Mt50DscA.11; assay: as above; conditions: Staphylococcus aureus
[32] = system: S. aureus N315 mutant Mt50DscA.2; assay: as above; conditions: Staphylococcus aureus
[33] = system: S. aureus N315 mutant Mt50DscA.5; assay: as above; conditions: Staphylococcus aureus
[34] = system: S. aureus Newman in PMA-differentiated human THP-1 cell line (macrophages); assay: Intra-macrophage activity
Text: The PMA-differentiated human THP-1 cell line (macrophages) was used as cellular host for infection with S. aureus Newman at an MOI (multiplicity of infection) of 10. […] Intracellular bacteria were recovered and serial dilutions were streaked out on CASO-Agar for cfu counting. The reference drug rifampicin reduced the number of intracellular bacteria by ca. 4 logs (at 8×MIC).

[35] = system: S. aureus N315 mutant Mt50DscA.6; assay: Susceptibility (MIC) of Disciformycin A-resistant mutant; conditions: Staphylococcus aureus
[36] = system: S. aureus N315 mutant Mt50DscA.8; assay: as above; conditions: Staphylococcus aureus
[37] = system: S. aureus N315 mutant Mt50DscA.4; assay: as above; conditions: Staphylococcus aureus
[38] = system: S. aureus N315 wildtype (WT); assay: Susceptibility (MIC) of S. aureus N315 wildtype; conditions: Staphylococcus aureus
[39] = Staphylococcus aureus, read-out: MIC

O=C(O)c1cn(C2CC2)c2cc(N3CCNCC3)c(F)cc2c1=O [Ciprofloxacin, reference compound]
MIC90 [1]: 75.4 µM (≈ 25 µg/mL) | zone of inhibition at 25 µg/hole [2]: 19 mm | zone of inhibition at 25 µg/hole [3]: 24 mm | zone of inhibition at 25 µg/hole [4]: 38 mm | zone of inhibition at 25 µg/hole (Escherichia coli SG458): 34 mm | zone of inhibition at 25 µg/hole [5]: 20 mm | zone of inhibition at 25 µg/hole [6]: 30 mm

C[C@@H]1[C@H](O)[C@@H](C)/C=C/C=C/C=C/C=C/C=C/C=C/C=C/[C@H](O[C@@H]2O[C@H](C)[C@@H](O)[C@H](N)[C@@H]2O)C[C@@H]2O[C@](O)(C[C@@H](O)C[C@@H](O)[C@H](O)CC[C@@H](O)C[C@@H](O)CC(=O)O[C@H]1C)C[C@H](O)[C@H]2C(=O)O [Amphotericin B]
diameter of inhibition zone [7]: 19 mm | diameter of inhibition zone [8]: 18 mm | diameter of inhibition zone [9]: 22 mm

C/C=C(/C)[C@H]1C/C=C(\C)[C@@H](O[C@H]2O[C@H](CO)[C@@H](O)[C@@H]2O)[C@H](OC(=O)CC(C)C)C(=O)/C=C/[C@H](C)C(=O)O1 [Compound 2, disciformycin B]
IC50 [10]: > 10 µg/mL | IC50 [11]: > 10 µg/mL | IC50 [12]: > 10 µg/mL | MIC [13]: 0.6 µg/mL (≈ 1.14 µM) | MIC [13, 39]: 0.6 µg/mL (≈ 1.14 µM) | MIC [14]: n.i. | MIC [15]: 3.3 µg/mL (≈ 6.29 µM) | MIC [16]: 16.6 µg/mL (≈ 31.6 µM) | MIC [17, 39]: 0.6 µg/mL (≈ 1.14 µM) | MIC [17]: 0.6 µg/mL (≈ 1.14 µM) | MIC [18]: 16.6 µg/mL (≈ 31.6 µM) | MIC [19]: n.i. | MIC ([20]; 16 h): 2.4 µg/mL (≈ 4.57 µM) | MIC ([20]; Staphylococcus, DSM20501, 16 h, read-out: MIC): 2.4 µg/mL (≈ 4.57 µM) | MIC [21]: n.i. | MIC (Bacillus subtilis DSM 10): 0.83 µg/mL (≈ 1.58 µM) | MIC [22]: n.i. | MIC [23]: 1.2 µg/mL (≈ 2.29 µM) | MIC ([23]; Staphylococcus aureus, NEWMAN, read-out: MIC): 1.2 µg/mL (≈ 2.29 µM) | MIC [24]: 1.2 µg/mL (≈ 2.29 µM) | MIC ([24]; Staphylococcus aureus, MRSA, read-out: MIC): 1.2 µg/mL (≈ 2.29 µM) | MIC [25]: 33.3 µg/mL (≈ 63.5 µM) | MIC [26]: n.i. | MIC [27]: > 64 µg/mL | MIC [28]: > 64 µg/mL | MIC [29]: > 64 µg/mL | MIC [30]: > 64 µg/mL | MIC [31]: 32 µg/mL (≈ 61 µM) | MIC [32]: > 64 µg/mL | MIC [33]: 16 µg/mL (≈ 30.5 µM) | reduction of the number of intracellular bacteria ([34]; 18 h, MOI 10, cfu counting, tested at 1×, 4× and 8×MIC): 3 logs | cytotoxicity towards THP-1 host cells ([34]; 18 h treatment of infected macrophages): without causing any apparent cytotoxicity | MIC [35]: > 64 µg/mL | MIC [36]: > 64 µg/mL | MIC [37]: > 64 µg/mL | MIC [38]: 1 µg/mL (≈ 1.91 µM)

— patent US20200231562A1, “NOVEL MACROLIDE ANTIBIOTICS” (HELMHOLTZ-ZENTRUM FÜR INFEKTIONSFORSCHUNG GMBH, priority 2014, published 2020)
